{"source": "patent US10064909B2", "about": "“Compositions and methods for chronic use of a weight-gaining compound” (priority 2015, dated 2018)", "key": {"[1]": {"assay": "Capromorelin efficacy in cats for 21 days: food consumption and bodyweight", "type": "in vivo", "settings": "for mean food intake increase over baseline: Day 1 to Day 21 vs Days -3 to -1", "method": "Thirty-two cats (16 neutered males, 16 females) were divided into 4 treatment groups including 4 animals of each sex per group. The cats were acclimated to the study environment for 10 days prior to study start. All cats were orally dosed with placebo (Group 1) or capromorelin (30 mg/ml oral solution, Formulation 9 as described above) at 1 mg/kg (Group 2), 2 mg/kg (Group 3) or 3 mg/kg (Group 4), for 21 days, with dosing starting on Day 1. Physical examinations were performed on Day −10 and general health observations made daily. Body weights were evaluated on Days −10, −8, −1, 1, 8, 15 and 22 days. Cats were fed about 1 hour after dosing. Commercial dry cat food (300 g) was provided for 5 hours and then removed and the amount of food consumed (g) calculated per cat. On Days 1, 14 and 21, blood samples were collected prior to daily dose administration and at 8 hours post-dose and serum processed for measurement of IGF-1 levels.\nOn Day 12, two study animals (one male each from Groups 1 and 4) were removed for reasons unrelated to the study and were not included in the data analysis. Cat 4M4 in the 3 mg/kg group lost significant weight during the first 8 days of treatment—then rebounded and began to gain the weight back. Statistical analysis for weight gain was completed with and without this cat's (4M4) data included."}, "[2]": {"assay": "Pilot clinical field study in cats with CKD (Example 11)", "type": "in vivo", "settings": "for mean bodyweight change (±SEM): 2 mg/kg oral once daily", "method": "This placebo controlled, masked non-GCP study was to confirm the safety and effectiveness (weight gain) of AT-002 (capromorelin) at a dose of 2 mg/kg administered once daily for 90 days in cats with CKD and a history of losing weight.\nA total of 42 cats were screened at 7 veterinary clinics. Of these 42 cats, 1 was a screen failure, resulting in 41 cats being enrolled and randomized to 1 of 2 treatments, capromorelin oral solution (AT-002) or placebo (CP). Eligible study candidates included cats that presented to the veterinary clinic with a diagnosis of CKD (IRIS stages II, III or IV) and a documented decrease in bodyweight over the previous 6 months. Test articles were provided as flavored oral solutions and were administered orally once daily beginning on Day 0 for 90±3 days, AT-002 at a dose rate of 2 mg/kg and CP at the equivalent dose volume to AT-002. The Investigator, study staff and cat Owners were masked to treatment. Cats were re-evaluated at the clinic on Day 14±1, Day 30±2, Day 60±3 and Day 90±3.\nThe key variable for the determination of effectiveness was bodyweight. Other effectiveness variables measured included body condition score, muscle condition score, quality of life assessments (unvalidated) and owner appetite assessments (unvalidated). Safety was assessed by physical examinations, clinical pathology testing (hematology and serum chemistry), urinalysis, serum IGF-1 levels and adverse event monitoring."}, "[3]": {"settings": "2 mg/kg, 90 days, PPP1, not statistically significant vs placebo"}}}
{"smiles": "CN1N=C2CCN(C(=O)[C@@H](COCc3ccccc3)NC(=O)C(C)(C)N)C[C@@]2(Cc2ccccc2)C1=O.O=C(O)C(O)C(O)C(=O)O", "note": "[capromorelin, N-[(2R)-1-[(3aR)-2-methyl-3-oxo-3a-(phenylmethyl)-6,7-dihydro-4H-pyrazolo[4,3-c]pyridin-5-yl]-1-oxo-3-(phenylmethoxy)propan-2-yl]-2-amino-2-methylpropanamide L-tartrate]", "values": [{"measurement": "mean percent bodyweight change", "setting": "[1]; 1 mg/kg (Group 2), Day 15", "result": 4.24, "unit": "%"}, {"measurement": "mean percent bodyweight change", "setting": "[1]; 1 mg/kg (Group 2), Day 22 (21-day exposure)", "result": 5.41, "unit": "%"}, {"measurement": "mean food intake increase over baseline", "setting": "[1]; 1 mg/kg oral (Group 2)", "result": 25.32, "unit": "%"}, {"measurement": "mean percent bodyweight change", "setting": "[1]; 2 mg/kg (Group 3), Day 8", "result": 3.23, "unit": "%"}, {"measurement": "mean percent bodyweight change", "setting": "[1]; 2 mg/kg (Group 3), Day 15", "result": 5.97, "unit": "%"}, {"measurement": "mean percent bodyweight change", "setting": "[1]; 2 mg/kg (Group 3), Day 22 (21-day exposure)", "result": 6.61, "unit": "%"}, {"measurement": "mean food intake increase over baseline", "setting": "[1]; 2 mg/kg oral (Group 3)", "result": 45.67, "unit": "%"}, {"measurement": "mean food consumption change from baseline", "setting": "[1]; 2 mg/kg, interval Day 8 through Day 14", "result": 54.42, "unit": "%"}, {"measurement": "mean percent bodyweight change", "setting": "[1]; 3 mg/kg (Group 4), 21-day exposure", "result": 3.92, "unit": "%"}, {"measurement": "mean food intake increase over baseline", "setting": "[1]; 3 mg/kg oral (Group 4)", "result": 29.59, "unit": "%"}, {"measurement": "mean body condition score (scale of 1 to 9)", "setting": "[2]; [3]", "result": "increased slightly"}, {"measurement": "mean muscle condition score (scale of 0 to 3)", "setting": "[2]; [3]", "result": "increased"}, {"measurement": "% Success, success defined as greater than 0% gain", "setting": "[2]; 2 mg/kg, Day 14, PPP2", "result": 86.7, "unit": "%"}, {"measurement": "% Success, success defined as maintenance or gain", "setting": "[2]; 2 mg/kg, Day 14, PPP2", "result": 86.7, "unit": "%"}, {"measurement": "Body weight successes per group, success defined as greater than 0% gain", "setting": "[2]; 2 mg/kg, Day 14, PPP2", "result": "13/15"}, {"measurement": "Bodyweight successes per group, success defined as maintenance or gain", "setting": "[2]; 2 mg/kg, Day 14, PPP2", "result": "13/15"}, {"measurement": "% Success, success defined as greater than 0% gain", "setting": "[2]; 2 mg/kg, Day 30, PPP2", "result": 86.7, "unit": "%"}, {"measurement": "% Success, success defined as maintenance or gain", "setting": "[2]; 2 mg/kg, Day 30, PPP2", "result": 93.3, "unit": "%"}, {"measurement": "Body weight successes per group, success defined as greater than 0% gain", "setting": "[2]; 2 mg/kg, Day 30, PPP2", "result": "13/15"}, {"measurement": "Bodyweight successes per group, success defined as maintenance or gain", "setting": "[2]; 2 mg/kg, Day 30, PPP2", "result": "14/15"}, {"measurement": "% Success, success defined as greater than 0% gain", "setting": "[2]; 2 mg/kg, Day 60, PPP2", "result": 66.7, "unit": "%"}, {"measurement": "% Success, success defined as maintenance or gain", "setting": "[2]; 2 mg/kg, Day 60, PPP2", "result": 80.0, "unit": "%"}, {"measurement": "Body weight successes per group, success defined as greater than 0% gain", "setting": "[2]; 2 mg/kg, Day 60, PPP2", "result": "10/15"}, {"measurement": "Bodyweight successes per group, success defined as maintenance or gain", "setting": "[2]; 2 mg/kg, Day 60, PPP2", "result": "12/15"}, {"measurement": "change in mean descriptive quality of life monthly score (±SEM) from Day 0", "setting": "[2]; 2 mg/kg, Day 90", "result": "0.00±0.11"}, {"measurement": "% Success, success defined as greater than 0% gain", "setting": "[2]; 2 mg/kg, Day 90, PPP2", "result": 73.3, "unit": "%"}, {"measurement": "% Success, success defined as maintenance or gain", "setting": "[2]; 2 mg/kg, Day 90, PPP2", "result": 80.0, "unit": "%"}, {"measurement": "Body weight successes per group, success defined as greater than 0% gain", "setting": "[2]; 2 mg/kg, Day 90, PPP2", "result": "11/15"}, {"measurement": "Bodyweight successes per group, success defined as maintenance or gain", "setting": "[2]; 2 mg/kg, Day 90, PPP2", "result": "12/15"}, {"measurement": "mean descriptive owner appetite assessment monthly scores", "setting": "[2]; 2 mg/kg, compared to placebo, Days 30, 60, 90, PPP1", "result": "did not change significantly"}, {"measurement": "mean descriptive quality of life monthly score (±SEM), scale of 1 to 5", "setting": "[2]; capromorelin group, Day 0 (baseline)", "result": "3.85±0.19"}, {"measurement": "tolerability", "setting": "[2]; cats with CKD, 2 mg/kg once daily, 90 days", "result": "well-tolerated"}, {"measurement": "mean bodyweight change (±SEM)", "setting": "[2]; cats with CKD, Day 14, n = 13, PPP1", "result": "2.93% ± 0.70%"}, {"measurement": "mean bodyweight change (±SEM)", "setting": "[2]; cats with CKD, Day 30, n = 13, PPP1, L-tartrate, 2 mg/kg", "result": "3.86%±0.85%"}, {"measurement": "mean bodyweight change (±SEM)", "setting": "[2]; cats with CKD, Day 30, n = 13, PPP1, listed as Capromorelin, L-tartrate, 2 mg/kg", "result": "3.86% ± 0.85%"}, {"measurement": "mean bodyweight change (±SEM)", "setting": "[2]; cats with CKD, Day 60, n = 13, PPP1, L-tartrate, 2 mg/kg", "result": "4.06%±1.42%"}, {"measurement": "mean bodyweight change (±SEM)", "setting": "[2]; cats with CKD, Day 60, n = 13, PPP1, listed as Capromorelin, L-tartrate, 2 mg/kg", "result": "4.06% ± 1.42%"}, {"measurement": "mean bodyweight change (±SEM)", "setting": "[2]; cats with CKD, Day 90, n = 13, PPP1, L-tartrate, 2 mg/kg", "result": "3.59%±1.59%"}, {"measurement": "mean bodyweight change (±SEM)", "setting": "[2]; cats with CKD, Day 90, n = 13, PPP1, listed as Capromorelin, L-tartrate, 2 mg/kg", "result": "3.59% ± 1.59%"}]}
